# Assay results published in patent publication US20090099029A1, “Methods and substrates for conducting assays” (Invitrogen Corporation, priority 2005, published 2009).
# Like-named read-outs stand apart in the source and are kept apart here.
# Legend:
# 39 kinases (Table 4) [1] = conditions: known general specificities of the inhibitors; cited from earlier work
# kinases of Table 5 [2] = target: kinases of Table 5 (Homo sapiens, UniProt P07948); test: Further analysis of a plurality of inhibitors and a plurality of kinases (Table 5 inhibition results); assay type: biochemical; design: scale not given here
# kinases of Table 5 (Homo sapiens, UniProt P07948), sequence (P07948 whole entry): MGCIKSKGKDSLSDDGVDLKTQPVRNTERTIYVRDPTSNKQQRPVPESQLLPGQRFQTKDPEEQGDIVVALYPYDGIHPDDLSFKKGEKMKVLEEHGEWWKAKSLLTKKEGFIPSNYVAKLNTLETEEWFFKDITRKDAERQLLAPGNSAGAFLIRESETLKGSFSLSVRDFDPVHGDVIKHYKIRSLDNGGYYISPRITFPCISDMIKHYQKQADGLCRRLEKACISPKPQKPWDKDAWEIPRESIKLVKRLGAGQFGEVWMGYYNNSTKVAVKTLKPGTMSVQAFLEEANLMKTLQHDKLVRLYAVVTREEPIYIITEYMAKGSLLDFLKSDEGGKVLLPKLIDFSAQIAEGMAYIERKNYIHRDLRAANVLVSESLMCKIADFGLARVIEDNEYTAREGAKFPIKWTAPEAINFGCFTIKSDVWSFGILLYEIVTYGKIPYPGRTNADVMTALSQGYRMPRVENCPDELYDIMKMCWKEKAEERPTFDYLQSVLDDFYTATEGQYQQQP
# Description: (§1) The wash solution is then discarded.
# kinases of Table 5 [3] = target: kinases of Table 5 (Homo sapiens, UniProt P09769); test: as above; assay type: biochemical; design: scale not given here; conditions: for Inhibition level: kinase FGR; for Inhibition Results (Level): kinase FGR (Part II, plate B10, Domain 0)
# kinases of Table 5 (Homo sapiens, UniProt P09769), sequence (P09769 whole entry): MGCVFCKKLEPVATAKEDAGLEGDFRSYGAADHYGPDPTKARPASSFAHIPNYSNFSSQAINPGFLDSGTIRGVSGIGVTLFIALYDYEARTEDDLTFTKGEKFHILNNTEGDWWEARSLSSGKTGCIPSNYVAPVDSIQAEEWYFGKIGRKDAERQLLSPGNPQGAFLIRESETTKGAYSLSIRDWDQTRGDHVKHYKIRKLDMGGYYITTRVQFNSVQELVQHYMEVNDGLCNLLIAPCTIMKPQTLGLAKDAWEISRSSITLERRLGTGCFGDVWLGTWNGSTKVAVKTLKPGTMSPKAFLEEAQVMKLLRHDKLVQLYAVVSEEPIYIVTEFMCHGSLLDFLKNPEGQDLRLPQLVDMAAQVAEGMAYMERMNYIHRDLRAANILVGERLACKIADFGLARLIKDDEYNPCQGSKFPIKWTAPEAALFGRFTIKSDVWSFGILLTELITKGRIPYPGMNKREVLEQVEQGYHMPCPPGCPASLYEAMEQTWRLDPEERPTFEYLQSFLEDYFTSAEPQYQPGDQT
# Description: as §1
# kinases of Table 5 [4] = target: kinases of Table 5 (Homo sapiens, UniProt Q8IVW4); test: as above; assay type: biochemical; design: scale not given here; conditions: inhibitor 100 uM; for Inhibition level: kinase CDKL3; for Inhibition Results (Level): kinase CDKL3 (Part II, plate F12, Domain 0)
# kinases of Table 5 (Homo sapiens, UniProt Q8IVW4), sequence (Q8IVW4 whole entry): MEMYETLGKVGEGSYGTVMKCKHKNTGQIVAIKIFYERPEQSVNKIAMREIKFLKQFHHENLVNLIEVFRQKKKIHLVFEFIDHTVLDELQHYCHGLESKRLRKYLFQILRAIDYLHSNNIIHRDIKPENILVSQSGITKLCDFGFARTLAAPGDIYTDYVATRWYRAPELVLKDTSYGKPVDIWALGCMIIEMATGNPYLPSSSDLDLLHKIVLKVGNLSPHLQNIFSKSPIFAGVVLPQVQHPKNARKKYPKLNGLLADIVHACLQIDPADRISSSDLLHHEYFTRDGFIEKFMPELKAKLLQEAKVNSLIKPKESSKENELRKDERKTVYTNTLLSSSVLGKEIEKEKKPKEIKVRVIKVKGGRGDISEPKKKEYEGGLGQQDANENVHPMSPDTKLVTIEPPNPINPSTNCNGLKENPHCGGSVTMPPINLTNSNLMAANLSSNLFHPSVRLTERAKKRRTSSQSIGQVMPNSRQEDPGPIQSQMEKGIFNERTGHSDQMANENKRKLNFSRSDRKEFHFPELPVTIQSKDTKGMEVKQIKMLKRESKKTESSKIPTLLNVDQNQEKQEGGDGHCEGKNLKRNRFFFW
# Description: as §1
# kinases of Table 5 [5] = target: T1, kinases of Table 5 (Homo sapiens, UniProt Q12866); test: as above; assay type: biochemical; design: scale not given here; conditions: inhibitor 100 uM; for Inhibition level: kinase MERTK; for Inhibition Results (Level): kinase MERTK (Part II, plate B11, Domain 1)
# T1 sequence (Q12866 21-999): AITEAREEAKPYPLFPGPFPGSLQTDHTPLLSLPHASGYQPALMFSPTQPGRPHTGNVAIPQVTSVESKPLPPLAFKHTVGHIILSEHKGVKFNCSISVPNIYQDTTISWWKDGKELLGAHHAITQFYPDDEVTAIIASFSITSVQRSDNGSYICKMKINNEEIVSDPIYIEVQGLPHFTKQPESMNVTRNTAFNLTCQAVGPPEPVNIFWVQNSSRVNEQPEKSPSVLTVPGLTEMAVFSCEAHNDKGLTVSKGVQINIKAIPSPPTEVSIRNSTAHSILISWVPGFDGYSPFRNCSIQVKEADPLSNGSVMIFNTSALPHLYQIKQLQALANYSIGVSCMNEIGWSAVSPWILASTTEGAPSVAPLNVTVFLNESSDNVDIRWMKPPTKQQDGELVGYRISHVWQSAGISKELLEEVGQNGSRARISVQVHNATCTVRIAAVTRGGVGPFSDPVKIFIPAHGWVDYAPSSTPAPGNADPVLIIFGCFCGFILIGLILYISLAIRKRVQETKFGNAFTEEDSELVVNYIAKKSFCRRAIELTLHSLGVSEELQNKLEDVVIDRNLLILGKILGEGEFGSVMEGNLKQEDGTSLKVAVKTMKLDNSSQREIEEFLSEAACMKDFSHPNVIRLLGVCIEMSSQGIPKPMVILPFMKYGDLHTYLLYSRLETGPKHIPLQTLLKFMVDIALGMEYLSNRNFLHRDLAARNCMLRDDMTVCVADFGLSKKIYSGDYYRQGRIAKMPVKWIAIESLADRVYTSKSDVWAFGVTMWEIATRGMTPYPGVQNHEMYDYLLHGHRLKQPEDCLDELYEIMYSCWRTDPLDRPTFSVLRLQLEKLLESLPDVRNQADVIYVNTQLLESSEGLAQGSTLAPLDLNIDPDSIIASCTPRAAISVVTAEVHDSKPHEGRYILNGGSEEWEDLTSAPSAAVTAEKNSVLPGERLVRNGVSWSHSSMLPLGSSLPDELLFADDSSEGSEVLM
# Description: as §1
# kinases of Table 5 [6] = target: kinases of Table 5 (Homo sapiens, UniProt Q13557); test: as above; assay type: biochemical; design: scale not given here
# kinases of Table 5 (Homo sapiens, UniProt Q13557), sequence (Q13557 whole entry): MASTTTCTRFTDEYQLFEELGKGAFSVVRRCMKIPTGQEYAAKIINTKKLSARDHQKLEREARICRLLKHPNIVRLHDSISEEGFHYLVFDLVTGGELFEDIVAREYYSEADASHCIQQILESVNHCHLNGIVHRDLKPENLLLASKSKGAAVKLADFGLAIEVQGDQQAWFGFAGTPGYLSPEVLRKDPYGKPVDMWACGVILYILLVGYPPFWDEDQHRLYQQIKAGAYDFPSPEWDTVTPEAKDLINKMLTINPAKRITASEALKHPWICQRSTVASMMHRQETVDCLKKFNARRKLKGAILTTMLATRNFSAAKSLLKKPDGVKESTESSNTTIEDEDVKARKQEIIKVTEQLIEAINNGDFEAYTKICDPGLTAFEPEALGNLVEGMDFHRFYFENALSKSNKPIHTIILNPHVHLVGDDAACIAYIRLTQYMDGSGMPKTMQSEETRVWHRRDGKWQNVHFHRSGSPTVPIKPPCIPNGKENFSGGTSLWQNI
# Description: as §1
# kinases of Table 5 [7] = target: T2, kinases of Table 5 (Homo sapiens, UniProt P54753); test: as above; assay type: biochemical; design: scale not given here; conditions: for Inhibition level: kinase EPHB3; for Inhibition Results (Level): kinase EPHB3 (Part II, plate B5, Domain 1)
# T2 sequence (P54753 34-998): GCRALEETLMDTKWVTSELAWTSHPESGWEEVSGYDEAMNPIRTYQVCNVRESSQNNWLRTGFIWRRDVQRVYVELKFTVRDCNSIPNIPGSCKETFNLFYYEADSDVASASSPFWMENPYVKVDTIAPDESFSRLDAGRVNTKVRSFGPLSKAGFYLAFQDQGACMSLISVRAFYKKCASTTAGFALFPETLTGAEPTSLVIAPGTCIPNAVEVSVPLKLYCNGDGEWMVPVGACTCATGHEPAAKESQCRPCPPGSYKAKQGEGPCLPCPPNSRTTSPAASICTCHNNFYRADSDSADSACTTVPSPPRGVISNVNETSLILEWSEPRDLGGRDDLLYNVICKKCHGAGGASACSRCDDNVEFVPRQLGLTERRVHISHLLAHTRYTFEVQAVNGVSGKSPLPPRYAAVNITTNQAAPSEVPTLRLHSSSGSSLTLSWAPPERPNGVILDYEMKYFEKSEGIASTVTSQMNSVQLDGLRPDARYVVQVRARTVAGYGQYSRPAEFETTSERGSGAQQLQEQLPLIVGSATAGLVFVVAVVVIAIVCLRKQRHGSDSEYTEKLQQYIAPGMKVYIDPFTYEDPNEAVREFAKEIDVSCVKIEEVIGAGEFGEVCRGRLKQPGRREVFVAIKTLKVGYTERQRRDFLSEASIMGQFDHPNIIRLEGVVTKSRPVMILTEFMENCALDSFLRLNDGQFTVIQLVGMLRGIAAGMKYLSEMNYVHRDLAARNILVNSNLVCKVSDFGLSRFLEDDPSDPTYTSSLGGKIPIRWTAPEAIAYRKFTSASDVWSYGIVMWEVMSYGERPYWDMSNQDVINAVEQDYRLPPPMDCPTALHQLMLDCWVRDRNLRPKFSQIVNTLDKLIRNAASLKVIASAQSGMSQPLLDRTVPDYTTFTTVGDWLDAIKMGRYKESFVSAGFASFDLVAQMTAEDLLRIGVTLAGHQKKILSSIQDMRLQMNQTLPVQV
# Description: as §1
# 39 kinases (Table 4) [8] = test: Global specificity profiling experiment, single point inhibition on kinase microarray; assay type: biochemical; conditions: substrates histone, casein, MBP, polyEY, control 2% DMSO
# Method: as §1
# To assess the application of microarray assays for compound profiling, seven known inhibitors (see Table of inhibitors used in global specificity profiling experiment) and one control (2% DMSO) were tested on microarrays deposited with a group of kinases (as well as positive and negative controls). The method of Example I was used. Twelve spots of each kinase or control were deposited on each array, and three arrays were used for each inhibitor. A mixture of generic kinase substrates (histone, casein, MBP, and polyEY) was used in the assay. The average of all signals from the same inhibitor or control experiment was calculated.
# . The general specificities observed were consistent with the known general specificities for these inhibitors, which are listed in Table 3.
# [9] = kinase LYN (Part I, plate A5, Domain 0), inhibitor 100 uM
# [10] = kinase CAMK2D, inhibitor 100 uM
# [11] = kinase CAMK2D, concentration not given
SMILES,General Specificity (39 kinases (Table 4) [1]),Inhibition Results (Level) (kinases of Table 5 [2]; [9]),Inhibition level (kinases of Table 5 [3]; inhibitor 100 uM),Inhibition level (kinases of Table 5 [4]),Inhibition level (kinases of Table 5 [5]),Inhibition level (kinases of Table 5 [6]; [10]),Inhibition level (kinases of Table 5 [7]; inhibitor 100 uM),"Inhibition Results (Level) (kinases of Table 5 [2]; kinase LYN (Part I, plate A5, Domain 0), inhibitor <3.7 mM)",Inhibition level (kinases of Table 5 [3]; concentration not given),Inhibition level (kinases of Table 5 [6]; [11]),Inhibition level (kinases of Table 5 [7]; concentration not given),Inhibition Results (Level) (kinases of Table 5 [3]; inhibitor 100 uM),Inhibition Results (Level) (kinases of Table 5 [4]),Inhibition Results (Level) (kinases of Table 5 [5]),Inhibition Results (Level) (kinases of Table 5 [7]; inhibitor 100 uM),specificity observed in global profiling (percentage-of-inhibition data) (39 kinases (Table 4) [8]),"Inhibition Results (Level) (kinases of Table 5 [2]; kinase LYN (Part I, plate A5, Domain 0), inhibitor 90 uM)",Inhibition Results (Level) (kinases of Table 5 [2]),Inhibition level (kinases of Table 5 [6])
N#C/C(=C/c1ccc(O)c(O)c1)C(=O)NCc1ccccc1 [AG 490],Tyrosine,2,2,2,2,2,2,,,,,,,,,,,,
COc1cc2ncnc(Nc3cccc(Cl)c3)c2cc1OC [AG 1478],,2,2,1,2,2,2,,,,,,,,,,,,
O=c1c(-c2ccc(O)cc2)coc2cc(O)cc(O)c12 [Genistein],Tyrosine,2,2,0,2,2,2,2,2,0,0,,,,,,,,
O=S(=O)(NCCNC/C=C/c1ccc(Br)cc1)c1cccc2cnccc12 [H-89],Serine/threonine,2,,,,0,,,,,,2,1,2,1,,,,
CC(C)(C)n1nc(-c2ccc(Cl)cc2)c2c(N)ncnc21 [PP2],Tyrosine,2,2,2,2,2,2,,,,,,,,,primarily inhibited tyrosine kinases,,,
O=c1c(O)c(-c2ccc(O)c(O)c2)oc2cc(O)cc(O)c12 [Quercetin],,2,,,,,,,,,,2,0,1,2,,,,
Cn1cc(C2=C(c3cn(CCCSC(=N)N)c4ccccc34)C(=O)NC2=O)c2ccccc21 [Ro-31-8220],Serine/threonine,2,2,2,2,0,2,,2,2,0,,,,,more specifically targeted the serine-threonine kinases,0,,
CC(=O)c1c(O)c(C)c(O)c(Cc2c(O)c3c(c(C(=O)/C=C/c4ccccc4)c2O)OC(C)(C)C=C3)c1O [Rottlerin (Mallotoxin)],,2,,,,2,,,,,,2,1,2,2,,,,
CN[C@@H]1C[C@H]2O[C@@](C)([C@@H]1OC)n1c3ccccc3c3c4c(c5c6ccccc6n2c5c31)C(=O)NC4 [Staurosporine],Broad,,,,,,,,2,,0,,,,,broad spectrum of kinases inhibited,,0,2
